According to patent US11524077B2, “Orally active, cell-penetrating homing peptide and methods using same” (Vascular BioSciences, priority 2012, dated 2022):
Bridge positions count the residues as written; N and C are the ends. Ends that are not written are not given here. Peptide text beside a SMILES is read from it.

What was measured:
[1] = test system: trypsin; assay: trypsin digest time-course experiment with mass spectrometry analysis; assay type: in vitro ADME; settings: trypsin in Krebbs buffer, 24° C., 0-120 minutes
Description: In an effort to further understand the oral availability of cyclic CAR peptide, we tested the stability of cyclic CAR (cCAR) and linear CAR in the presence of trypsin, a serine protease that is one of the primary enzymes found in the digestive system of vertebrates. Trypsin selectively cleaves peptide chains at the carboxyl side of the basic residues lysine and arginine, yielding a potentially wide variety of peptide fragments.
We conducted a trypsin proteolysis time course experiment, and tested cCAR and linear CAR (cyclic CAR that lacks the disulfide bond between adjacent cysteine residues and has a linear structure) in the presence of a trypsin solution.
For the digest time course experiment, the cCAR peptide sample was prepared by dissolving cCAR in Krebbs buffer (670 μM CAR), and the trypsin digest solution was prepared by adding trypsin to Krebbs buffer as well (0.1 μg/μL Trypsin). 15 μL CAR (670 μM) was added to 40 μL trypsin solution (0.1 μg/μL) and 75 μL Krebbs buffer. The reaction was allowed to proceed at 24° C. for different time periods of time. The reactions were quenched with 20 μL formic acid (500 μM) at different time points to stop trypsin from degrading any further peptide substrate. These steps were performed repeatedly for multiple time points (t=0, 5, 10, 15, 20, 30, 60, 120 minutes) for both cCAR and linear CAR. The different time point samples were desalted and analyzed using mass spectrometry.

[2] = co-administered with the Rho-kinase inhibitor fasudil; cited from earlier work
[3] = test system: severe occlusive PAH rats (SU5416/Hx/Nx-exposed); assay: hemodynamic effect of oral CAR 3 hours prior to i.v. imatinib in severe occlusive rat model of PAH; assay type: in vivo
Experimental: Anesthetized severe occlusive PAH rats were then catheterized in the right jugular vein for measurement of right ventricular systolic pressure (RVSP), the right carotid artery and advanced into the aorta for the measurement of systemic pressure (SAP) and the left jugular vein for drug administration.
Values are means±SE. N=3 without CAR and N=5 with CAR *p<0.05 vs. without CAR.
Recently we sought to explore the hemodynamic effect of orally administering 20 mg/kg of CAR 3 hours prior to i.v. administration of imatinib at doses of 5 mg/kg and 20 mg/kg in a severe occlusive rat model of PAH. Rats were first orally syringe fed a mixture of 20 mg/Kg CAR in a 10% sucrose solution 3 hours prior to anesthetization and assessment of the hemodynamic effects of i.v. administration of 5 mg/kg imatinib followed 20 minutes later by i.v. administration of 20 mg/kg of imatinib (FIG. 1).

[4] = test system: SU/Hx/Nx rats with severe occlusive model PAH; assay: sublingual CAR +/- imatinib or sildenafil in rats with severe occlusive model PAH; assay type: in vivo, rat; settings: CAR 3 mg/kg sublingual; i.v. bolus imatinib or sildenafil; RVSP and SAP
Experimental: (A) a pulmonary artery with medial thickening, (B) a small pulmonary artery with neointimal occlusion, (C) spleen, (D) liver, and (E) kidney from a SU/Hx/Nx rat. […] Effects of CAR (3 mg/kg, sublingual) on intravenous (bolus) imatinib (F)- and sildenafil (G)- induced reductions in right ventricular systolic pressure (RVSP) and systemic arterial pressure (SAP) in SU/Hx/Nx rats. Values are means±SE. N=4-6. *p<0.05 with (solid line) vs. without (dashed line) CAR.
CAR was administered sublingually at a dosing of 3 mg/kg. The administration was performed in six rats with severe occlusive model PAH via dropper sublingually. The administration was +/− imatinib or +/− sildenafil.

[5] = test system: pulmonary hypertensive arteries; settings: monocrotaline (MCT) and SU5416/Hypoxia/Normoxia severe occlusive rat models of PAH; cited from earlier work
[6] = imatinib i.v. 20 mg/kg, 3 hours after oral CAR 20 mg/kg, severe occlusive PAH rats

Compound | outcome of trypsin digest (stability in words) [1] | resistance to trypsin digestion relative to cCAR [1] | resistance to trypsin digestion relative to linear CAR [1] | vasodilation when co-administered with fasudil [2] | adjuvant activity after oral administration ([3]; 3 hours after oral CAR 20 mg/kg in 10% sucrose, i.v. imatinib) | change in systemic arterial pressure (SAP) [3, 6] | reduction in right ventricular systolic pressure (RVSP) [3, 6] [%] | effect on action of co-administered drugs [4] | homing to pulmonary hypertensive arteries [5]
C[C@H](NC(=O)[C@@H]1CSSC[C@H](NC(=O)[C@H](CC(=O)O)NC(=O)[C@H](CCCCN)NC(=O)[C@H](CC(N)=O)NC(=O)[C@H](CCCCN)NC(=O)[C@@H](N)CO)C(=O)N1)C(=O)N[C@@H](CCCNC(=N)N)C(=O)O [SEQ ID NO: 5, SKNKDCCAR] (H-SKNKDCCAR-OH; disulfide 6-7; N-terminus and C-terminus assumed) | largely resistant to further degradation by trypsin | approximately 10 fold | approximately 100 fold |  |  |  |  |  | 
C[C@H](NC(=O)[C@@H](N)CS)C(=O)N[C@@H](CCCNC(=N)N)C(=O)N[C@@H](CO)C(=O)N[C@@H](CCCCN)C(=O)N[C@@H](CC(N)=O)C(=O)N[C@@H](CCCCN)C(=O)N[C@@H](CC(=O)O)C(=O)N[C@@H](CS)C(=O)O [linear CAR] (H-CARSKNKDC-OH; N-terminus and C-terminus assumed) | quickly digested by trypsin into its constituent amino acids |  |  |  |  |  |  |  | 
CARSKNKDC (disulfide 1-9 (inferred)) [cell-penetrating homing peptide] | yielded one predominant product that persisted over the time course of the experiment |  |  | acute pulmonary selective vasodilation | displayed pulmonary selective adjuvant activity | no change | 18 | can facilitate the selective action of co-administered drugs at the site of the disease | shown to home to pulmonary hypertensive arteries
